This data set is described as follows: Isoelectric point of the iron-saccharide complex: pH at which its aqueous solution turns turbid on drop-wise addition of diluted hydrochloric acid (USP 27 iron sucrose injection method). The class given is physicochemical. The following applies: examples described in text; Example 1 measured by method of 27th version of USP.

Excerpt: The term “isoelectric point” herein refers to a pH value at which the aqueous solution of iron-saccharide complexes turns turbid during the drop-wise addition of a diluted hydrochloric acid solution.

On to “Polynuclear Ferric Hydroxide-fructose Complex [Example 11]”, for which the “isoelectric point of the final product” value stood at 5.2. On to “Polynuclear Ferric Hydroxide-sucrose Complex [Example 1]”, for which the “isoelectric point of the final product” value was determined as 4.4.

Source of the values: patent publication US8053470B2, “Process for the preparation of polynuclear ferric hydroxide-saccaride complexes” (Chongqing Pharmaceutical Research Institute Co., Ltd., priority 2005, dated 2011).
